Results: US6117859A, “Method of relieving chronic inflammation by using 5-alkylsulfonylsalicylanilides” (The Research Foundation of State University of New York, priority 1999, dated 2000)

System: ear weight gain produced by multiple doses of TPA in mice
Assay: Chronic (multiple dose) TPA mouse ear inflammation assay, ear weight gain
Type: in vivo, mouse (female CD-1)
Details: for Decrease in weight relative to TPA treated biopsies: 20 μg HCV/ear
Description: The acute skin inflammation model described in Example 1, tests the ability of a compound to prevent inflammation and thus must be applied prophylactically. Most clinical situations, however, are present as chronic inflammatory conditions. […] The effects of the compounds of the present invention and Salifluor on chronically inflamed skin was measured in the mouse ear model that utilizes multiple TPA doses over a 10-day period to produce the inflammatory response.
The assay used female CD-1 mice (7-9 weeks of age). Following a 2-week quarantine, mice were randomly assigned to test groups (5 mice/groups). TPA (10 uL of 0.01 TPA in acetone) was administered to both the inner and outer surface of each ear (2μg/ear) on day 0,2,4,7, and 9 on protocol. On Day 7,8 and 9, two applications of test article were applied to each ear 2 and 4 hours after dosing with TPA. The test articles were administered in 10 uL aliquots to both the inner and outer surface of each ear (20 μl total/dose). […] Hydrocortisone-17-valerate (HCV, 20μg/ear) was employed as a positive control. Mice were sacrificed at Day 10 on protocol and uniform punch biopsies (approximately 8 mm dia.) were taken from each ear. While on protocol, dermal irritation was scored semiquantitatively at Day 1,3,5,8, and 10.
Inhibition of TPA stimulated increased ear weight was used as an initial measure of efficacy for all of the agents tested. One biopsy from each mouse was also quick frozen and stored at -70° C. for later assay of myleoperoxidase, an enzyme associated with infiltrating PMN, or other measure of efficacy. The remaining biopsy from each mouse treated with Trifluorosal or HCV was fixed in formalin and processed for histopathologic evaluation, including measurement of cellular infiltration (PMNs, endothelial cells, macrophages) and epidermal thickness at 20 random sites along the length of the specimen.
Initially, a dose-response curve for multiple doses of TPA to produce mouse ear weight gain was generated in order to determine the concentration of TPA to be employed in the inhibition studies. […] Another major difference between the multiple TPA dose (or chronic assay for inflammation) and the single TPA dose (or acute assay for inflammation) in the mouse ear is sensitivity to Non-steroidal antiinflammatory drugs (NSAIDs) and antihistamines.

| SMILES | Decrease in weight relative to TPA treated biopsies (Assay #1) | Decrease in weight relative to TPA treated biopsies (Assay #2) | Inhibition of ear weight gain (20μg/ear, first experiment) | % Inhibition of Ear Weight Gain, Actual (multiple doses of TPA) | % Inhibition of Ear Weight Gain, Relative to Hydrocortisone (HCV) = 100% (multiple doses of TPA, head prints 1.25 eg/ear) |
| --- | --- | --- | --- | --- | --- |
| CCCCC(=O)O[C@]1(C(=O)CO)CC[C@H]2[C@@H]3CCC4=CC(=O)CC[C@]4(C)[C@H]3[C@@H](O)C[C@@]21C [Hydrocortisone 17-valerate, Hydrocortisone-17-valerate, reference compound] | 71% | 107% | 86% |  |  |
| CCCCCCCCS(=O)(=O)c1ccc(O)c(C(=O)Nc2cccc(C(F)(F)F)c2)c1 [TMF-8] |  |  |  | 0% | 0% |
